Measurements from US9790496B2, “Microrna compounds and methods for modulating MIR-21 activity” (Regulus Therapeutics, Inc., priority 2011, dated 2017).

System: ischemia reperfusion injury/nephrectomy (IR/Nx) model
Test: Survival rate of IR/Nx model mice two days after nephrectomy
Assay type: in vivo
Description: The survival rate of IR/Nx model mice two days after nephrectomy was determined across six different experiments to determine if administration of anti-miR-21 compounds increases survival. In the first three experiments, anti-miR-21 compound was administered on days 5, 6, and 7 after ischemia reperfusion injury, and nephrectomy occurred on day 10 or day 11. In the second three experiments, anti-miR-21 compound was administered on days 2, 3, and 4, and nephrectomy occurred on day 7.

Sequence: AECSATCSAGTCSTGAUSAAGCSTAE (ACATCAGTCTGATAAGCTA; modified nucleosides coded in name, code key not given here) [Compound 25070]
- Survival rate 2 days after Nx (Study 4, Nx Day 7, 20 mg/kg on days 2, 3, 4 after IR): 75%
- survival rate 2 days after nephrectomy (first three experiments: dosing days 5, 6, 7, nephrectomy day 10 or 11, PBS 55%, P=0.02): 80%
- survival rate 2 days after nephrectomy (second three experiments: dosing days 2, 3, 4, nephrectomy day 7, PBS 52%, P=0.11): 69%
